Data published in patent publication US11976083B2, “Inhibitors of peptidylarginine deiminases” (Gilead Sciences, Inc., priority 2020, dated 2024).

Molecular target: T1, human PAD4 (Homo sapiens, UniProt Q9UM07)
T1 construct: human PAD4 (NM_012387), A2-P663, was PCR amplified; His-SUMO (N, cleaved yes); made in house; host or cells: E. coli BL21(DE3)
Experiment: In vitro PAD4 BAEE biochemical assay
Settings: BAEE substrate 3 mM, 5 nM PAD4, 2 mM calcium chloride; geometric mean of multiple experiments
Procedure, shortened: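 Recombinant PAD4 (5 nM final) with 2 mM CaCl2 was preincubated with compound for 30 min at 25 °C in MOPS pH 7.6 buffer with DTT, then reacted with 3 mM BAEE for 2 h at 25 °C. Released ammonia was detected fluorimetrically with o-phthalaldehyde/DTT; IC50 from four-parameter fit, geometric mean of experiments.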

T1 sequence (Q9UM07 2-663): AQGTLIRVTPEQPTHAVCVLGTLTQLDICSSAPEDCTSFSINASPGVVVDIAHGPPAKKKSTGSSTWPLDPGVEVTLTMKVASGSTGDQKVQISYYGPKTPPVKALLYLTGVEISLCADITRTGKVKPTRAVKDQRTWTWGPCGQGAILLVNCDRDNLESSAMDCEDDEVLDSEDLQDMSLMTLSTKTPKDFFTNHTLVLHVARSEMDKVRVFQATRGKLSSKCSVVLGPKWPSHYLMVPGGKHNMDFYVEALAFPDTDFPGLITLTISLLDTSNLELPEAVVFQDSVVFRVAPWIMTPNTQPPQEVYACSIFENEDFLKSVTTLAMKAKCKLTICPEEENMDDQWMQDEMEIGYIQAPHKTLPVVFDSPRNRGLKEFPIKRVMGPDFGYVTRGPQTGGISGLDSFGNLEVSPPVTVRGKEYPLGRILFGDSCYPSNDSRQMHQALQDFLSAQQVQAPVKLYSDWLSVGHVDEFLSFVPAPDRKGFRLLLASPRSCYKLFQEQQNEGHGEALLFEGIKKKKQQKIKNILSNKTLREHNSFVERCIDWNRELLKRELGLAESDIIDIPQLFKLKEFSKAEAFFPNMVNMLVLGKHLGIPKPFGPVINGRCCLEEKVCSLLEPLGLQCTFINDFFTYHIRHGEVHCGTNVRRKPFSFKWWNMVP

SMILES	IC50
C[C@H]1NC(=O)[C@@H]2C[C@@]2(F)CCCCCn2c(-c3nc4cc(C(=O)N5C[C@H](N)[C@@H]6CC[C@H]5C6)cc(F)c4n3C3CC3)cc3ccc1nc32 [Example 450, (2~{R},5~{S},7~{S})-14-[5-[(1~{S},4~{R},5~{R})-4-amino-2-azabicyclo[3.2.1]octane-2-carbonyl]-1-cyclopropyl-7-fluoro-benzimidazol-2-yl]-7-fluoro-2-methyl-3,13,19-triazatetracyclo[11.5.2.0^{5,7}.0^{16,20}] icosa-1(19),14,16(20),17-tetraen-4-one]	21 nM
COc1cc(C(=O)N2C[C@H](N)[C@@H]3CC[C@H]2C3)cc2nc(-c3cc4ccc5nc4n3CCCCC[C@]3(F)C[C@H]3C(=O)N[C@@H]5C)n(C)c12 [Example 451, (2~{R},5~{S},7~{S})-14-[5-[(1~{S},4~{R},5~{R})-4-amino-2-azabicyclo[3.2.1]octane-2-carbonyl]-7-methoxy-1-methyl-benzimidazol-2-yl]-7-fluoro-2-methyl-3,13,19-triazatetracyclo[11.5.2.0^{5,7}.0^{16,20}] icosa-1(19),14,16(20),17-tetraen-4-one]	19 nM
C[C@H]1NC(=O)c2ccc(Cl)nc2CCCCCn2c(-c3nc4cc(C(=O)N5C[C@H](N)[C@@H]6CC[C@H]5C6)cc(F)c4n3[C@@H]3C[C@@H]3F)cc3ccc1nc32 [Example 452, (2~{R})-17-[(1~{R})-5-[(1~{S},4~{R},5~{R})-4-amino-2-azabicyclo[3.2.1]octane-2-carbonyl]-7-fluoro-1-[(2~{S})-2-fluorocyclopropyl]benzimidazol-2-yl]-8-chloro-2-methyl-3,9,16,22-tetrazatetracyclo[14.5.2.0^{5,10).0^{19,23}] tricosa-1(22),5(10),6,8,17,19(23),20-heptaen-4-one]	37 nM
C[C@H]1NC(=O)[C@@H]2C[C@H]2CCCC(F)(F)Cn2c(-c3nc4cc(C(=O)N5C[C@H](N)[C@@H]6CC[C@H]5C6)cc(F)c4n3[C@@H]3C[C@H]3C(F)F)cc3ccc1nc32 [Example 454, (2~{R},5~{R},7~{R})-14-[5-[(1~{S),4~{R},5~{R})-4-amino-2-azabicycło[3.2.1]octane-2-carbonyl]-1-[(1~{R},2~{R})-2-(difluoromethyl)cyclopropyl]-7-fluoro-benzimidazol-2-yl]-11,11-difluoro-2-methyl-3,13,19-triazatetracyclo[11.5.2.0^{5,7}.0^{16,20}] icosa-1(19),14,16(20),17-tetraen-4-one]	31 nM
C[C@H]1NC(=O)[C@@H]2C[C@H]2CCCC(F)(F)Cn2c(-c3nc4cc(C(=O)N5C[C@H](N)[C@@H]6CC[C@H]5C6)c(F)cc4n3C3CC3)cc3ccc1nc32 [Example 455, (2~{R},5~{R},7~{R})-14-[5-[(1~{S},4~{R},5~{R})-4-amino-2-azabicyclo[3.2.1]octane-2-carbonyl]-1-cyclopropyl-6-fluoro-benzimidazol-2-yl]-11,11-difluoro-2-methyl-3,13,19-triazatetracyclo[11.5.2.0^{5,7}.0^{16,20}] icosa-1(19),14,16(20),17-tetraen-4-one]	36 nM
C[C@H]1NC(=O)c2ccc(Cl)nc2CCCCCn2c(-c3nc4cc(C(=O)N5C[C@H](N)[C@@H]6CC[C@H]5C6)c(F)c(F)c4n3C3CC3)cc3ccc1nc32 [Example 456, (2~{R})-17-[5-[(1~{S},4~{R},5~{R})-4-amino-2-azabicyclo[3.2.1]octane-2-carbonyl]-1-cyclopropyl-6,7-difluoro-benzimidazol-2-yl]-8-chloro-2-methyl-3,9,16,22-tetrazatetracyclo[14.5.2.0^{5,10}.0^{19,23}] tricosa-1(22),5(10),6,8,17,19(23),20-heptaen-4-one]	57 nM
C[C@H]1NC(=O)c2c(ncc3ccccc23)CCCCCn2c(-c3nc4cc(C(=O)N5C[C@H](N)[C@@H]6CC[C@H]5C6)cc(F)c4n3C3CC3)cc3ccc1nc32 [Example 457, (2~{R})-21-[5-[(1~{S),4~{R},5~{R})-4-amino-2-azabicyclo[3.2.1]octane-2-carbonyl]-1-cyclopropyl-7-fluoro-benzimidazol-2-yl]-2-methyl-3,13,20,26-tetrazapentacyclo[18.5.2.0^{5,14}.0^ {6,11}.0^{23,27}]heptacosa-1(26),5(14),6(11),7,9,12,21,23(27),24-nonaen-4-one]	38 nM
C[C@H]1NC(=O)[C@@H]2C[C@H]2CCCCCn2c(-c3nc4cc(C(=O)N5C[C@H](N)[C@@H]6CC[C@H]5C6)cnc4n3C3CC3)cc3ccc1nc32 [Example 458, (2~{R},5~{R},7~{R})-14-[6-[(1~{S),4~{R},5~{R})-4-amino-2-azabicyclo[3.2.1]octane-2-carbonyl]-3-cyclopropyl-imidazo[4,5-b]pyridin-2-yl]-2-methyl-3,13,19-triazatetracyclo[11.5.2.0^{5,7}.0^{16,20}] icosa-1(19),14,16(20),17-tetraen-4-one]	23 nM
COc1cc(C(=O)N2C[C@H](N)[C@@H]3CC[C@H]2C3)cc2nc(-c3cc4ccc5nc4n3CC(F)(F)CCCC[C@](C)(C(F)(F)F)C(=O)N[C@@H]5C)n(C)c12 [Example 459, (8~{S},11~{R})-17-[5-[(1~{S},4~{R},5~{R})-4-amino-2-azabicyclo[3.2.1]octane-2-carbonyl]-7-methoxy-1-methyl-benzimidazol-2-yl]-3,3-difluoro-8,11-dimethyl-8-(trifluoromethyl)-1,10,19-triazatricyclo[10.5.2.0^{15,18}]nonadeca-12(19),13,15(18),16-tetraen-9-one]	130 nM
COc1cc(C(=O)N2C[C@H](N)[C@@H]3CC[C@H]2C3)cc2nc(-c3cc4ccc5nc4n3CC(F)(F)CCCOC(C)(C)C(=O)N[C@@H]5C)n(C)c12 [Example 460, (11~{R})-17-[5-[(1~{S},4~{R},5~{R})-4-amino-2-azabicyclo[3.2.1]octane-2-carbonyl]-7-methoxy-1-methyl-benzimidazol-2-yl]-3,3-difluoro-8,8,11-trimethyl-7-oxa-1,10,19-triazatricyclo[10.5.2.0^{15,18}]nonadeca-12(19),13,15(18),16-tetraen-9-one]	71 nM
COc1cc(C(=O)N2C[C@H](N)[C@@H]3CC[C@H]2C3)cc2nc(-c3cc4ccc5nc4n3CCCCCc3cc4ccccc4nc3C(=O)N[C@@H]5C)n(C)c12 [Example 461, (2~{R})-21-[5-[(1~{S},4~{R},5~{R})-4-amino-2-azabicyclo[3.2.1]octane-2-carbonyl]-7-methoxy-1-methyl-benzimidazol-2-yl]-2-methyl-3,6,20,26-tetrazapentacyclo[18.5.2.0^ {5,14}.0^{7,12}.0^ {23,27}]heptacosa-1(26),5(14),6,8,10,12,21,23(27),24-nonaen-4-one]	51 nM
C[C@H]1NC(=O)C(C)(C)CCCCCCn2c(-c3nc4cc(C(=O)N5C[C@H](N)[C@@H]6CC[C@H]5C6)cc(F)c4n3C3CC3)cc3ccc1cc32 [Example 462, (11~{R})-17-[5-[(1~{S},4~{R},5~{R})-4-amino-2-azabicyclo[3.2.1]octane-2-carbonyl]-1-cyclopropyl-7-fluoro-benzimidazol-2-yl]-8,8,11-trimethyl-1,10-diazatricyclo[10.5.2.0^{15,18}]nonadeca-12(19),13,15(18),16-tetraen-9-one]	31 nM
